Reference: US20100233681A1, “METHOD FOR CELL BASED ASSAYS” (GE Healthcare UK Limited, priority 2006, published 2010)

System: U2OS osteosarcoma cells
Conditions: 250 ml of a 40 mM solution of histamine added after 20 seconds; control cells steady state 4500000 fluorescence units; 37° C.; FluoroMax-3 spectrofluorimeter
Experimental: i) U2OS osteosarcoma cells were grown on collagen coated CYTODEX™ 3 microcarriers (GE Healthcare) according to the Manufacturer's instructions in DMEM media (Invitrogen) supplemented with 10% (v/v) fetal bovine serum (Sigma). Once the culture had attained the required volume and cell density the cells on beads were loaded with 1 μM Fluo-4 (Invitrogen). Microcarriers were allowed to settle, the growth media removed and replaced with calcium flux buffer (145 mM sodium chloride, 5 mM potassium chloride, 1 mM magnesium sulphate, 10 mM HEPES, 10 mM D-glucose, 1 mM calcium chloride containing 1% BSA, 1 μM Fluo-4 (Invitrogen) and the cells incubated for 40 minutes at 37° C. Beads were allowed to settle, the calcium flux buffer removed and replaced with DMEM media supplemented with 10% (v/v) fetal bovine serum and glycerol (10% v/v final concentration) was added as a cryo-preservative. Fluo-4 loaded cells on beads were divided into aliquots of 8×10^5 cells and the 1 ml aliquots frozen to −140° C. at a freezing rate of 1° C./minute. ii) To set up the cell assay, vials of cryo-preserved cells were rapidly thawed in a water bath at 37° C. and cells on bead suspensions placed in 1.5 ml spectrofluorimeter cuvettes and equilibrated at 37° C. for 30 minutes. Fluorescence measurements were acquired over time using a FluoroMax-3 spectrofluorimeter using excitation and emission settings for Fluo-4.

## NCCc1c[nH]cn1 [histamine]
  Fluo-4 fluorescence after addition of histamine (intracellular calcium release): 5170000 fluorescence units
